Data published in patent publication US20010051654A1, “Treatment of inflammatory and autoimmune diseases” (priority 1997, published 2001).
Like-named read-outs stand apart in the source and are kept apart here.

Columns and labels:
20 S proteasome [1] = assay: Ex vivo 20 S proteasome activity in peripheral white blood cells of rats
Experimental: (§1) This preparation procedure applies to blood samples collected from mammals, particularly rats, mice, dogs, pigs, rabbits, non-human primates, or human subjects. Peripheral white blood cells are separated from blood samples upon collection for storage at about −70° C. until tested. To avoid interference with the assay due to the presence of endogenous proteasome inhibitors, it is important that red blood cells be rigorously excluded.
(§2) The blood sample is diluted 1:1 (v/v) with sterile saline, and the blood-saline mixture is layered over NYCOPREP™ separation medium (GIBCO BRL Products) in a 14×75 mm polystyrene test tube at a ratio of approximately 2:1 blood:NYCOPREP™. The sample is centrifuged at 500 x g for approximately 30 minutes at room temperature. The top layer is removed, leaving ˜2-3 mm of the cell band between the top and bottom layers. The remaining cell band is transferred by pipette to a clean centrifuge tube. The cell band is washed with 3 mL of cold phosphate-buffered saline and centrifuged at 400 x g for 5 minutes at 4° C. The supernatant is poured off and the pellet is resuspended in ˜1 mL of cold phosphate-buffered saline. The suspension is transferred to a 1.5 mL Eppendorf microfuge tube and microfuged at 6600 x g for approximately 10 minutes at 4° C. The supernatant is aspirated off and the cell pellet is stored at −70° C.±10° C.
Measurement of this rate in the absence and in the presence of an inhibitor allows a determination of how enzyme is bound by inhibitor. This assay is used to measure 20 S proteasome activity in peripheral white blood cells in mammals, particularly rats, mice, dogs, pigs, rabbits, non-human primates, or human subjects.
The amount of 20 S proteasome activity in the test sample is calculated according to the following formula: [formula]
Dose formulations of 1 were prepared daily during the course of the study. Dilutions were prepared from a stock solution. The stock solution of 1 was made up in 98% saline (0.9%), 2% ethanol with 0.1% ascorbic acid. Dilutions of the stock were made in the same vehicle.
Drugs were administered in vehicle intravenously (IV) using a dose volume of 100 μL per mouse or 1.0 mL/kg in rats. Control groups were administered with the vehicle (98% saline [0.9%], 2% ethanol, 0.1% ascorbic acid). Animals were dosed with 1 as a single IV bolus given either once or on multiple occasions.
Following IV dosing with 1, blood was withdrawn at various time points and peripheral white blood cells were isolated.
Blood samples were collected at 1.0, 24 and 48 h following administration of 1.
In an additional repeat dose study, male Sprague-Dawley rats (250 to 450 g; n=6 per group) were treated with twice weekly intravenous doses of 1 (0.01 to 0.35 mg/kg/day in a dose volume of 1.0 mL/kg) for two weeks. The vehicle was 0. […] Blood samples were collected 1.0 h after the last dose for evaluation of 20 S proteasome activity.

20 S proteasome [2] = assay: Chymotryptic to tryptic activity ratio assay, human samples; type: biochemical
Description: βt=activation factor determined upon titration of the proteasome inhibitor. For the proteasome inhibitor 1, βt=1.28 in human samples.

20 S proteasome [3] = assay: Ex vivo 20 S proteasome activity in primate white blood cells; parameters: species or system Cynomolgus monkeys
Experimental: (§3) Male and female Cynomolgus monkeys (2.2 to 3.5 kg) were assigned to four groups (5/sex/group). Each group received 0 (vehicle control), 0.045, 0.067 or 0.100 mg/kg/dose of 1 as a single intravenous injection in a dose volume of 0.3 mL/kg twice weekly for 4 weeks (days 1, 5, 8, 12, 15, 19, 22 and 26). […] Three males from the control, low- and mid-dose groups, two high-dose males, and three females/group were sacrificed at the end of treatment on Day 27. Two animals/sex/group were designated as recovery animals and received treatment for 4 weeks followed by 2 weeks of recovery; they were sacrificed on Day 41.
(§4) Blood was collected for 20 S proteasome activity determination prior to treatment, at 1.0 h after dosing on Days 1, 8, 15 and 22, and at 1.0 h prior to dosing on Days 5, 12, 19 and 26; and on Days 31, 34, 38, and 41 (recovery sacrifice animals).

20 S proteasome [4] = assay: Chymotryptic and tryptic assays in rat white blood cell lysates; type: biochemical; details: fit, FIG. 19
Description: Data was fitted as in Example 10, to give kc/kt=17.6±and βt=1.1±0.2 (FIG. 19).

20 S proteasome [5] = assay: Ex vivo 20 S proteasome activity in peripheral white blood cells of mice
Experimental: as §1
as §2, with “The supernatant is aspirated off and the cell pellet is stored at −70° C.±10° C.” left out
The amount of 20 S proteasome activity in the test sample is calculated according to the following formula: [formula] […]

[6] = test system: 20 S proteasome from rabbit reticulocytes; assay: Chymotryptic and tryptic activities of purified 20 S proteasome from rabbit reticulocytes
Experimental: Chymotryptic and tryptic assays were performed as described in Examples 3 and 5 at increasing concentrations of the proteasome inhibitor 1.

20 S proteasome [7] = molecular target: T1, 20 S proteasome (Rattus norvegicus, UniProt P28075)
T1 sequence (P28075 60-263): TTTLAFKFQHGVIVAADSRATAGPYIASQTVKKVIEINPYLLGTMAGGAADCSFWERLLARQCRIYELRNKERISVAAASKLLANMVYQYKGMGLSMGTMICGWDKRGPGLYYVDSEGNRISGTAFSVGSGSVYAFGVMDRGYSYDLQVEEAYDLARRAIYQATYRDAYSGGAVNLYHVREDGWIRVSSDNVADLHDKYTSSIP
Experimental: In two studies, female Wistar rats (150 to 200 g) were administered a single intravenous dose of 1 (0.03, 0.1 and 0.3 mg/kg in a dose volume of 1.0 mL/kg). […] Tissue samples were collected from liver and brain at 1.0, 24 and 48 h following administration for evaluation of 20 S proteasome activity.
In a third study, male Sprague-Dawley rats (250 to 450 g) were administered a single intravenous dose of 1 (0.1 and 0.3 mg/kg in a dose volume of 1.0 mL/kg). […] Blood and tissue samples were collected 1.0 h following administration for evaluation of 20 S proteasome activity. The tissues collected were brain, colon, liver, muscle (gastrocnemius), prostate and testes.

[8] = parameters: species or system Sprague-Dawley rats; details: rat, in vivo, iv
Experimental: A single dose intravenous pharmacokinetics study with N-(pyrazine)carbonyl-L-phenylalanine-L-leucine boronic acid (1) was conducted in Sprague-Dawley rats (140 to 280 g). Animals were assigned to 3 groups (6/sex in Groups 1 and 2; 9/sex in Group 3). Animals in groups 1, 2, and 3 received 0.03, 0.1 or 0.3 mg/kg of 1, respectively, in the same dose volume.
Blood samples (approximately 1.0 mL) were collected from the jugular vein of animals pre-dose and at approximately 10 and 30 min and 1, 3 and 24 h post-dose on Day 1.

[9] = Twice weekly intravenous dosing for 4 weeks in Cynomolgus monkeys, clinical condition; type: in vivo; details: one high-dose male (0.100 mg/kg/dose), Day 26 after receiving 8 doses
Experimental: as §3, §4

[10] = test system: actively sensitized Brown Norway rats; assay: Allergen-induced pulmonary leukocyte accumulation in actively sensitized Brown Norway rats (3b alone); type: in vivo
Experimental: Rats. Male Brown Norway rats were supplied by Harlan Olac Limited (Bicester, Oxon, UK) and delivered within the weight range of 180-200 g. Following acclimatization for at least five days, animals were actively sensitized over a 3-week period and were within the weight range 250-300 g at the time of allergen exposure. Food and water were provided ad libitum.
Sensitization. Ovalbumin (OA; 10 μg) mixed with aluminum hydroxide gel (10 mg) will be injected (0.5 mL, i.p.) into Brown Norway rats and repeated 7 and 14 days later.
Drug Treatment. On day 21, sensitized rats were anaesthetized (halothane 5% in O2) and 3b, dexamethasone, or vehicle (lactose) was instilled via a cannula placed directly into the trachea at 1 hour prior to OA exposure. This procedure was repeated at 24 hours and 48 hours after OA exposure.
Challenge. Following recovery, sensitized animals were restrained in plastic tubes and exposed (60 min) to an aerosol of OA (10 mg/mL) using a nose-only exposure system. Animals were sacrificed 72 hours later with pentobarbital (250 mg/kg i.p.).
Analysis. The lungs were lavaged using 3 aliquots (4 mL) of Hank's solution (HBSS x 10, 100 mL; EDTA 100 mM, 100 mL; HEPES 1M, 10 mL made to […] with water); recovered cells were pooled and the total volume of recovered fluid was adjusted to 12 mL by addition of Hank's solution. Total cells were counted (Sysmex Microcell Counter F-500, TOPA Medical Electronics Ltd., Japan). Smears were made by diluting recovered fluid (to approximately 10^6 cells/mL) and spinning an aliquot (100 μL) in a centrifuge (Cytospin, Shandon, UK). Smears were air dried, fixed using a solution of fast green in methanol (2 mg/L) for 5 seconds and stained with eosin G (5 seconds) and thiazine (5 seconds) (Diff-Quik, Baxter Dade Ltd, Switzerland) in order to differentiate eosinophils, neutrophils, macrophages and lymphocytes. A total of 500 cells per smear were counted by light microscopy under oil immersion (x 1000).

[11] = alternate daily IV for 14 days, 24 h after last dose
[12] = daily IV for 7 days, 24 h after last dose
[13] = once weekly IV for 8 weeks, 24 h after last dose
[14] = 1.0 h after single IV 0.1 and 0.3 mg/kg, male Sprague-Dawley rats
[15] = 0.1 and 0.3 mg/kg i.t. 1 h before, 24 h and 48 h after OA, 72 h
[16] = dose dependence, 72 hours after aerosolized ovalbumin

CC(C)C[C@H](NC(=O)[C@H](Cc1ccccc1)NC(=O)c1cnccn1)B(O)O [Compound 1, N-(pyrazine)carbonyl-L-phenylalanine-L-leucine boronic acid]
20 S proteasome activity in white blood cells (20 S proteasome [1]; 1.0 h after single IV 0.03 to 0.3 mg/kg, female Wistar rats): significant (p<0.05) dose-related decrease
20 S proteasome activity in white blood cells (20 S proteasome [1]; 24 h after single IV 0.03 to 0.3 mg/kg, female Wistar rats): smaller, but remained significant (p <0.05) in the higher dose groups
20 S proteasome activity in white blood cells (20 S proteasome [1]; 48 h after single IV 0.03 to 0.3 mg/kg, female Wistar rats): no longer significantly decreased
20 S proteasome activity in white blood cells (20 S proteasome [1]; [11]): significant dose-related decrease
dose groups with significant (p<0.05) decrease in 20 S proteasome activity (20 S proteasome [1]; [11]): > 0.2 mg/kg
20 S proteasome activity in white blood cells (20 S proteasome [1]; [12]): dose-related decrease
doses with significant inhibition of 20 S proteasome activity (20 S proteasome [1]; [12]): > 0.05 mg/kg
20 S proteasome activity in white blood cells (20 S proteasome [1]; [13]): significant (p<0.05) dose-related decrease
dose groups with significant (p<0.05) decrease in 20 S proteasome activity (20 S proteasome [1]; [13]): > 0.1 mg/kg
20 S proteasome activity in white blood cells (20 S proteasome [1]; twice weekly IV for 2 weeks (4 doses, 0.01 to 0.35 mg/kg/day), 1.0 h after last dose, male Sprague-Dawley rats): dose-related decrease
dose groups with significant (p<0.05) decrease in 20 S proteasome activity (20 S proteasome [1]; twice weekly IV for 2 weeks, 1.0 h after last dose, male Sprague-Dawley rats): > 0.03 mg/kg
βt (activation factor determined upon titration of the proteasome inhibitor) (20 S proteasome [2]): 1.28
white blood cell 20 S proteasome activity (20 S proteasome [3]; 1.0 h after dosing, 0.045, 0.067 or 0.100 mg/kg/dose IV twice weekly for 4 weeks): significant and dose-related decrease
white blood cell 20 S proteasome activity (20 S proteasome [3]; 72 hours after dosing, prior to the subsequent dose): recovered
white blood cell 20 S proteasome activity of the moribund animal (20 S proteasome [3]; high-dose male at sacrifice on Day 26 after 8 doses): low residual 20 S proteasome activity
βt (activation factor of tryptic activity) (20 S proteasome [4]): 1.1±0.2
20 S proteasome activity in white blood cells (20 S proteasome [5]; 1.0 h after single IV 0.1 to 3.0 mg/kg, all dose groups): significant (p<0.05) dose-related decrease
20 S proteasome activity in white blood cells (20 S proteasome [5]; 24 h after single IV 0.1 to 3.0 mg/kg): starts to recover
βc (factor for chymotryptic activity of the E•I complex; 0 = total inhibition) [6]: 0
chymotryptic activity (FIG. 17) ([6]; increasing concentrations of 1): fully inhibits
tryptic activity (FIG. 17) ([6]; increasing concentrations of 1): activation
βt (activation factor of tryptic activity) ([6]; purified 20 S proteasome from rabbit reticulocytes, fit, FIG. 18): 1.38±0.05
20 S proteasome activity in rat liver (20 S proteasome [7]; 1.0 h after single IV 0.03, 0.1, 0.3 mg/kg, female Wistar rats): significant (p<0.05) dose-related decrease
20 S proteasome activity in peripheral white blood cells, colon, liver, muscle (gastrocnemius), and prostate (20 S proteasome [7]; [14]): Significant (p<0.05) dose-related decreases
20 S proteasome inhibition in brain and testes (20 S proteasome [7]; [14]): No 20 S proteasome inhibition
20 S proteasome activity in rat liver (20 S proteasome [7]; 24 h after single IV, high dose group 0.3 mg/kg, female Wistar rats): smaller, but remained significant (p<0.05) in the high dose group
20 S proteasome activity in rat liver (20 S proteasome [7]; 48 h after single IV, female Wistar rats): returned to baseline
penetration into brain tissue (20 S proteasome [7]; inferred from absent 20 S proteasome inhibition, female Wistar rats): lack of penetration
penetration into brain and testes (20 S proteasome [7]; inferred from absent 20 S proteasome inhibition, male Sprague-Dawley rats): lack of 1 penetration
20 S proteasome inhibition in brain tissue (20 S proteasome [7]; single IV 0.03, 0.1, 0.3 mg/kg, female Wistar rats): No 20 S proteasome inhibition
clearance from the blood [8]: rapidly cleared
time to peak concentration (Tmax) ([8]; 0.3 mg/kg): ~10 min
clinical condition [9]: sacrificed in moribund condition

CCCC1C(=O)NC2(C(O)C(C)C)OC(=O)C12 (stereo not drawn) [Compound 3b, 7-n-propyl-clasto-lactacystin β-lactone]
influx of eosinophils in bronchoalveolar lavage fluid [10, 15]: reduced
influx of total leukocytes in bronchoalveolar lavage fluid [10, 15]: reduced
lymphocyte count in bronchoalveolar lavage fluid ([10]; all doses i.t., 72 h after OA): significant decrease
eosinophil count in bronchoalveolar lavage fluid (FIG. 4) [10, 16]: dose dependent inhibition
leukocyte count in bronchoalveolar lavage fluid (FIG. 3) [10, 16]: dose-dependent reduction
